The source of these data is patent US20010034362A1, “Pyrrolidine derivatives for vision and memory disorders” (Guilford Pharmaceuticals Inc., priority 1998, published 2001).

The target in one data set is FKBP12 (Homo sapiens, UniProt P62942). In words: Inhibition of peptidyl-prolyl isomerase (rotamase) activity of FKBP, chymotrypsin-coupled assay, apparent Ki. Type of data set: biochemical. An excerpt:
The inhibition of the prolyl peptidyl cis-trans isomerase activity of FKBP may be measured as an indicator of this affinity. Inhibition of the peptidyl-prolyl isomerase (rotamase) activity of the compounds used in the inventive methods and pharmaceutical compositions can be evaluated by known methods described in the literature (Harding et al., Nature, 1989, 341:758-760; Holt et al. J. Am. Chem. Soc., 115:9923-9938). […] The cis-trans isomerization of an alanine-proline bond in a model substrate, N-succinyl-[…]-nitroanilide, is monitored spectrophotometrically in a chymotrypsin-coupled assay, which releases para-nitroanilide from the trans form of the substrate. […] The reaction is initiated by the addition of […] of substrate (succinyl-[…]-nitroanilide, 5 mg/ml in 2.35 mM LiCl in trifluoroethanol).

The subject of data set [1] is retinal ganglion cell axons. In words: Protection of retinal ganglion cell axons from degeneration following optic nerve transection (Table V). Type of data set: in vivo. The conditions noted are these: ± SEM. An excerpt: Efficacy of representative compounds from different immunophilin ligand series in protecing retinal gangiou cell axons from degeneration following optic nerve transection is set forth in Table V.

Data set [2] in a line: Clearance (Table V comments). It is filed as in vitro ADME.
Setting [3] is: Table V comments, read-out: Ki rotamase.
The mark [4] stands for this setting: apparent Ki, rotamase inhibition, Table A, read-out: K1.

pKi: −log10 of the molar value. Where two headings read alike, the source gives them in different places.

Chain of FKBP12 (P62942 whole entry, species assumed): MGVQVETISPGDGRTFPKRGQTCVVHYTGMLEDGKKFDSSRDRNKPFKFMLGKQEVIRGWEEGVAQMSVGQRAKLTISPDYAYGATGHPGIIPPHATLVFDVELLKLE

With `O=C(SCCCc1ccccc1)[C@@H]1CCCN1C(=O)NC12CC3CC(CC(C3)C1)C2` [B], the pKi at FKBP12 (setting [3]) is 6.83.
`O=C(SCCCc1ccccc1)[C@@H]1CCCN1S(=O)(=O)Cc1ccccc1` [C]: in data set [1], the “RT97 + RGC axon density 14 days after ON transection (% ON axons rescued)” value was 60.4% ± 3.1% SEM. Also, the pKi at FKBP12 (setting [3]) is 6.97. Further, in data set [2], the Clearance was determined as 31.1 µL/min.
Take `CCC(C)(C)C(=O)C(=O)N1CCC[C@H]1C(=O)OCCCc1ccccc1` [Compound 1, 3-Phenyl-1-propyl (2S)-1-(3,3-dimethyl-1,2-dioxopentyl)-2-pyrrolidinecarboxylate]: the pKi on FKBP12 (setting [4]) is 7.38.
Same read-out and setting: then `CCC(C)(C)C(=O)C(=O)N1CCCC1C(=O)OCC=Cc1ccccc1` [Compound 2, 3-phenyl-1-prop-2-(E)-enyl (2S)-1-(3,3-dimethyl-1,2-dioxopentyl)-2-pyrrolidinecarboxylate], with 6.90; and `CCC(C)(C)C(=O)C(=O)N1CCCC1C(=O)OCC=Cc1cc(OC)c(OC)c(OC)c1` [Compound 4, 3-(3,4,5-trimethoxyphenyl)-1-prop-2-(E)-enyl (2S)-1-(3,3-dimethyl-1,2-dioxopentyl)-2-pyrrolidine carboxylate], with 7.19.
On the same count and under the same terms, then `CCC(C)(C)C(=O)C(=O)N1CCCC1C(=O)OCC=Cc1ccc2c(c1)OCO2` [Compound 6, 3-(4,5-methylenedioxyphenyl)-1-prop-2-(E)-enyl (2S)-1-(3,3-dimethyl-1,2-dioxopentyl)-2-pyrrolidinecarboxylate], with 6.80; and `CCC(C)(C)C(=O)C(=O)N1CCCC1C(=O)OCC=CC1CCCCC1` [Compound 8, 3-cyclohexyl-1-prop-2-(E) -enyl (2S) -1-(3,3-dimethyl-1,2-doxopentyl)-2-pyrrolidinecarboxylate], with 6.22.
The same measure, in the same setting: then `O=C(C(=O)N1CCCC1C(=O)OCCCc1ccccc1)c1cccs1` [Compound 11, 3-phenyl-1-propyl (2S)-1-(1,2-dioxo-2-[2-thienyl])ethyl-2-pyrrolidinecarboxylate], with 7.04; and `O=C(C(=O)N1CCCC1C(=O)OCCCc1ccccc1)c1nccs1` [Compound 12, 3-phenyl-1-propyl (2S)-1-(1,2-dioxo-2-[2-thiazolyl])ethyl-2-pyrrolidinecarboxylate], with 7.00.
`O=C(C(=O)N1CCCC1C(=O)OCCCc1ccccc1)c1ccccc1` [Compound 13, 3-phenyl-1-propyl (2S)-1-(1,2-dioxo-2-phenyl)ethyl-2-pyrrolidinecarboxylate]: the pKi on FKBP12 (setting [4]) was 5.71.
Take `CCC(C)(C)C(=O)C(=O)N1CCCC1C(=O)OCC=Cc1cc(OC)ccc1OC` [Compound 15, 3-(2,5-dimethoxyphenyl)-1-prop-2-(E)-enyl (2S)-1-(3,3-dimethyl-1,2-dioxopentyl)-2-pyrrolidine-carboxylate]: on FKBP12 (setting [4]), the pKi was 6.35.
On the same count and under the same terms, then `O=C(C(=O)N1CCCC1C(=O)OCCC(c1ccccc1)c1ccccc1)C1CCCCC1` [Compound 29, 3,3-Diphenyl-1-propyl (2S)-1-cyclohexyl glyoxyl-2-pyrrolidinecarboxylate], with 7.70; and `O=C(C(=O)N1CCCC1C(=O)OCCC(c1ccccc1)c1ccccc1)c1cccs1` [Compound 30, 3,3-Diphenyl-1-propyl (2S) -1-(2-thienyl) glyoxyl-2-pyrrolidinecarboxylate], with 6.82.
On to `O=C(OCCCc1ccccc1)[C@@H]1CCCN1S(=O)(=O)Cc1ccccc1` [D], for which the “RT97 + RGC axon density 14 days after ON transection (% ON axons rescued)” value in data set [1] is listed as 58.4% ± 6.4% SEM.
As to `CCC(C)(C)C(=O)C(=O)N1CCCC1C(=O)OC(CCc1ccccc1)CCc1ccccc1` (stereo not drawn) [E], the “RT97 + RGC axon density 14 days after ON transection (% ON axons rescued)” value in data set [1] was 56.6% ± 9.4% SEM. For the same molecule, in data set [2], the Clearance was found to be 41.8 µL/min.
In the case of `CCC(C)(C)C(=O)C(=O)N1CCS[C@@H]1C(=O)OCCCc1cccnc1` [F], on FKBP12 (setting [3]), the pKi was 6.57.
As for `O=C(OCCCc1cccnc1)[C@@H]1CCCN1C(=S)NC1CCCCC1` [I], the pKi at FKBP12 (setting [3]) was 6.88. In data set [2], this molecule yielded a Clearance of 8.0 µL/min.
Take `CCC(C)(C)C(=O)C(=O)N1CCC[C@H]1C(=O)CCCCc1cccnc1` [J]: the Clearance in data set [2] was 1.5 µL/min.
Turning to `CCC(C)(C)C(=O)C(=O)N1CCCC[C@H]1C(=O)SCCC(c1ccccc1)c1ccccc1` [K], the “RT97 + RGC axon density 14 days after ON transection (% ON axons rescued)” value in data set [1] is 7.8% ± 3.0% SEM. In addition, the Clearance in data set [2] was 5.2 µL/min.
For the molecule `CCC(C)(C)C(=O)C(=O)N1CCC[C@H]1C(=O)O` [L], the “RT97 + RGC axon density 14 days after ON transection (% ON axons rescued)” value in data set [1] is recorded as 7.8% ± 3.0% SEM. This molecule also displayed a Clearance in data set [2] of 5.2 µL/min.
The matching figures for `CCC(C)(C)C(=O)C(=O)N1CCC[C@H]1C(=O)SCCC(c1ccccc1)c1ccccc1` [M]: −6.3% + 3.9 SEM and 12.5 µL/min.
Turning to `CN(C)C(=O)N1CCC[C@H]1C(=O)SCCCc1ccccc1` [N], the pKi at FKBP12 (setting [3]) was 6.14. This molecule came in with a Clearance in data set [2] of 21.9 µL/min.
